Assay results from paper PMC4973902, “Identification of Novel Smoothened Ligands Using Structure-Based Docking” (PLoS ONE, 2016).
“Also recorded” adds a separate entry of the source. Like-named read-outs stand apart in the source and are kept apart here.

Tests used:
[1] = test system: Gli1 expression in Ptch1-/- MEFs; test: qPCR of Gli1 expression in Ptch1-/- MEFs; type: cell-based, mouse; settings: for IC50: Mus musculus
Protocol: (§1) Antagonist candidates were tested using Ptch1^-/- reporter mouse embryonic fibroblasts (MEFs). In Ptch1^-/- cells, the Hh pathway is constitutively activated as a result of deletion of Patched-1, the Hedgehog receptor and a functional inhibitor of Smo. The reporter cells were engineered to express the 8XGli-Luciferase reporter that faithfully monitors levels of Gli-mediated transcriptional activity as a readout of Hedgehog signalling. Firefly Luciferase is therefore constitutively expressed in these cells and its expression is inhibited by Smo antagonists such as cyclopamine. In the initial test for activity, we screened the 21 docking hits at a dose of 30 μM. […] Their ability to repress the pathway was further confirmed by quantifying transcript levels of Gli1, a target gene of the Hedgehog pathway, using qPCR (Fig 1C and S1 Table).
(§2) Ptch1^-/- MEFs or C3H10T1/2 SMO cells (overexpression of mouse Smo wt or mouse Smo D477H using a retroviral vector) were plated at a density of 2x10^5 cells/well in 12-well plates. The next day, the confluent cells were serum-starved with plain DMEM for 24 h before drugs and compounds were added to the indicated final concentration. RNA was extracted using Trizol (Life Technologies, 15596–018) after 24 h. 1 μg of RNA was DNase-treated (Life Technologies, 18047–019) before being reverse transcribed into cDNA (High-Capacity Reverse Transcription kit, Life Technologies, 4368813). Real-time quantitative PCR reactions were performed on an ABI 7900HT in 384-well plates containing 20 ng cDNA, using Power SYBR Green PCR Master Mix (Life Technologies, 4367660). Relative Gli1 mRNA levels were calculated using the comparative Ct method, normalized to Gapdh mRNA. Primers used were validated as previously described.

[2] = Aggregation counter-screens (DLS, centrifugation, unrelated enzymes), overall outcome; type: physicochemical; settings: enzyme counter-screens
Protocol: All the antagonists with low micromolar IC50 were counter-screened for colloidal aggregation, a common mechanism of artefactual activity in early ligand discovery. […] These observations highlight the importance of counter-screening for this artefactual mechanism of action when evaluating new Smoothened antagonists.
(§3) The assays were performed as always with the addition of a centrifugation step. The antagonists were diluted in media to their final concentration. Half the solution was used as standard treatment: the media in wells was replaced with the media containing the drugs. The other half of the solution was then centrifuged for 20 min at 21,000g. The supernatant was used to replace the media in the wells.
(§4) Compounds 13b, 19b, 20b, 25b, 27b, 32b, 37b, 40b and 45b were diluted with both filtered DMEM and KPi, with a final concentration of 1% DMSO. Measurements were made using a DynaPro Plate Reader II system (Wyatt Technology) with a 60 mW laser at ~830 nm in either 96-well or 384-well plates; this particular instrument had been modified by Wyatt Technology to have a larger laser beam width that is appropriate for detecting large colloidal particles.
Both DMEM and KPi were used as buffer.

mouse Smoothened = mouse Smoothened (Mus musculus, UniProt P56726); settings: for Binding (yes/no), BODIPY-cyclopamine displacement: HEK293 mSmo-mCherry
mouse Smoothened, sequence (P56726 33-793): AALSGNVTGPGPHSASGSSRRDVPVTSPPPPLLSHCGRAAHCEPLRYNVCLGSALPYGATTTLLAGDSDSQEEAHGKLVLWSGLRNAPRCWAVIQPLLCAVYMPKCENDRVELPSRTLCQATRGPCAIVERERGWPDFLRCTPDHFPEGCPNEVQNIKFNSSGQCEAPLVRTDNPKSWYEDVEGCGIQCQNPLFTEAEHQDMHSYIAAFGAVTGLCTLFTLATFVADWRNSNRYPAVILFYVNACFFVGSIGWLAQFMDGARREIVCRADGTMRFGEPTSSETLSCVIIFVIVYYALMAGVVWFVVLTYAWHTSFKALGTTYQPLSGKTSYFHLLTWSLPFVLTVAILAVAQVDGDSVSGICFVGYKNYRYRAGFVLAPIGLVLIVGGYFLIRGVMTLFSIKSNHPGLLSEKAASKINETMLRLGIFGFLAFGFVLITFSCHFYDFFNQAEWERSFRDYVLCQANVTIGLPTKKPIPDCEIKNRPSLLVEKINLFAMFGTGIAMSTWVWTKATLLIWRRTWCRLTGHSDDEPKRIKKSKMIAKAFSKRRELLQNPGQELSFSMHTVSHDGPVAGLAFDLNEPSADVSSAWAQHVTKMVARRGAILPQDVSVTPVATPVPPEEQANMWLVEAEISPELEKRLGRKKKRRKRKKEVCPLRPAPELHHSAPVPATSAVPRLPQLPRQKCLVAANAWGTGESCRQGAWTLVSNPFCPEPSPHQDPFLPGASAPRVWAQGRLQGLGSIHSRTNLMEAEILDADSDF
Protocol: Using a stable line enabling the inducible expression of Smo-mCherry, we tested whether well-behaved, non-aggregating antagonists can specifically displace BODIPY-cyclopamine bound to Smoothened using flow cytometry.
Left: average cell fluorescence was measured by flow cytometry and plotted against antagonist concentration. Representative curve are shown.
A 293 stable cell line expressing tetracycline-inducible mouse Smoothened with mCherry fused to its C-terminus was used for these experiments. Cells were grown to confluence in the presence of 1 μg/mL tetracycline for 24 h. Cells were then incubated with 10 nM BODIPY-Cyclopamine and compounds for 2 h at 37°C. For FACS, cells were first trypsinized, fixed with 4% paraformaldehyde for 20 min, washed with TBS + 0.1% Triton X-100 and then sorted (FACS). BODIPY fluorescence was measured on the FACS Fortessa and FACS data was analyzed with FlowJo software. BODIPY fluorescence in control HEK293 was used to set the background threshold. Mean fluorescence was plotted against the compound concentration to calculate its IC50. For microscopy, fixed cells were imaged. Live cells were washed with PBS before fixing.

[3] = test system: Gli-Luciferase reporter in Ptch1-/- MEFs; test: 8xGli-Luciferase reporter assay in Ptch1-/- MEFs; type: cell-based, mouse; settings: for inhibition at 30 µM / IC50: Mus musculus; for inhibition at 30 µM: compared to DMSO; for IC50: read-out: IC50 Gli-Luciferase assay (range, n); for Inhibition of Gli-Luciferase (yes/no): single-dose screen at 30 μM (vismodegib 100 nM)
Protocol: as §1
Ptch1^-/- MEFs stably expressing the Gli-Luciferase reporter and constitutive Renilla Luciferase were used. The Gli-Luciferase reporter is a Firefly Luciferase reporter driven by 8xGli consensus binding site in its promoter, cloned in a lentiviral plasmid carrying a puromycin resistance for selection. For the assay, 5x10^4 cells/well were plated in 48-well plates. The next day, the confluent cells were serum-starved with plain DMEM for 24 h. Drugs and compounds were added to the indicated final concentration and incubated for 24 h, each condition in duplicate. For the assay, Promega Dual Glow reagents were used. Media was removed and cells were lysed in 50 μL Passive Lysis Buffer for 10 min. 10 μL of lysate was assayed in black plates with 10 μL of each substrate, in duplicate. Luminescence was measured with an EnVision 2100 (Perkin Elmer). Firefly Luciferase luminescence was divided by the Renilla Luciferase luminescence, then normalized to vehicle condition to obtain the fold change in reporter activity.

[4] = test system: TOPFLASH Wnt-ß-catenin reporter (Frizzled receptors); test: TopFlash Wnt-ß-catenin reporter assay in HEK293T cells; settings: Wnt3a-conditioned media
Protocol: We used HEK293T TopFlash cells, expressing a luciferase reporter under the control of a ß–catenin-responsive LEF/TCF promoter.
The assay was carried out in HEK293T, as described [71].

Smo wt = target: T1, Smo wt (Mus musculus, UniProt P56726); test: Gli1 qPCR dose-response in C3H10T1/2 cells overexpressing Smo wt; type: cell-based; settings: read-out: inhibition of Smo WT (dose-response, Fig 7G)
T1 construct: expressed in transfected cells; host or cells: C3H10T1/2 cells, retroviral transduction
T1 sequence (P56726 33-793): as above
From the text: (§5) Fig 7 Binding poses and inhibition of vismodegib-resistant Smo by 45b. (A) Side view of the complex of Smo structure (represented as purple surface, TM6 was cut) with LY2940680 in the orthosteric site (represented as light pink sticks). (B)-(F) Predicted binding modes against the Smo WT of compounds 3, 6, 44, 244 and 45b, respectively. LY2940680 is represented as light pink wires, the compounds as green sticks, hydrogen bonds as black dashed lines and important residues as sticks. […] C3H10T1/2 cells were transduced with retrovirus for the overexpression of Smo wt or Smo D477H. (H) Predicted binding modes of compound 45b against a model of D473H Smo.
as §2, with “1 μg of RNA was DNase-treated (Life Technologies, 18047–019) before being reverse transcribed into cDNA (High-Capacity Reverse Transcription kit, Life Technologies, 4368813).” left out, “Primers used were validated as previously described.” left out

[5] = target: T2, mouse D477H mutant (equivalent to human D473H) of Smo (Mus musculus, UniProt P56726, D477H); test: Gli1 qPCR dose-response in C3H10T1/2 cells overexpressing Smo D477H; type: cell-based
T2 construct: expressed in transfected cells; host or cells: C3H10T1/2 cells, retroviral transduction
T2 sequence (P56726 33-793 D477H): as the sequence (P56726 33-793) above, with D445H counted along it
From the text: as §5
as §2, with “1 μg of RNA was DNase-treated (Life Technologies, 18047–019) before being reverse transcribed into cDNA (High-Capacity Reverse Transcription kit, Life Technologies, 4368813).” left out, “Primers used were validated as previously described.” left out

Smoothened = target: T3, Smoothened (Mus musculus, UniProt P56726); test: Centrifugation counter screen of Smo antagonism; type: cell-based; settings: 20 min centrifugation; Gli-luciferase, Gli1 qPCR, bodipy-cyclopamine displacement
T3 construct: endogenous in cells; host or cells: Ptch1-/- MEFs with 8xGli-Luciferase reporter (inferred)
T3 sequence (P56726 33-793): as the sequence (P56726 33-793) above
Protocol: as §3

[6] = Dynamic Light Scattering (DLS); type: physicochemical; settings: 1 μM
Protocol: as §4

Smo mutations at D473 = test system: Smo mutations at D473; parameters: method as in PMID 25008467; settings: cited from earlier work
D473H mutant of Smo = test system: D473H mutant of Smo; parameters: method as in PMID 19726788; settings: cited from earlier work
[7] = 24 h, read-out: IC50 Gli1 qPCR (range, n)

Row | Structure (SMILES) | IC50 [1, 7] | outcome of aggregation counter-screens [2] | IC50 (mouse Smoothened) | IC50 ([3]; 24 h) | Inhibition of Gli-Luciferase (yes/no) [3] | Inhibition - Gli1 qPCR (yes/no) [1] | inhibition at 30 µM [3] | other results
1 | NC(=O)c1cc(-c2cc(NCc3ccccn3)nc3[nH]ccc23)cs1 [Compound 25b] | 7.8 µM | well-behaved antagonists | – | 2.3 µM | – | – | – | –
2 | Cc1cc2c(-c3cc(NCc4ccccn4)nc4[nH]ccc34)ncnc2s1 [Compound 32b] | 12.7 µM | well-behaved antagonists | – | 9.4 µM | – | – | – | –
3 | NC(=O)c1cc(-c2cc(NCc3cccnc3)nc3[nH]ccc23)cs1 [Compound 37b] | 8.8 µM | well-behaved antagonists | – | 5.4 µM | – | – | – | –
4 | CSc1nc(C)cc(-c2cc(NCc3ccccn3)nc3[nH]ccc23)n1 [Compound 45b] | 5.3 µM | well-behaved antagonists | 12.7 µM | 3.1 µM | – | – | – | activity on TOPFLASH Wnt-ß-catenin reporter ([4]; 10 μM, 24 hours co-treatment): no detectable activity; also recorded: lack of inhibition; IC50 (Smo wt): 1100 nM; IC50 ([5]; C3H10T1/2 cells overexpressing mouse Smo D477H, read-out: inhibition of Smo D473H mutant (dose-response, Fig 7G)): 3.1 µM; shift at D473H mutant relative to WT ([5]; D473H vs WT): 2.7 fold
5 | CCC(C)n1ncn(-c2ccc(N3CCN(c4ccc(OCC5COC(Cn6cncn6)(c6ccc(Cl)cc6Cl)O5)cc4)CC3)cc2)c1=O (stereo not drawn) [itraconazole] | – | – | – | – | – | – | – | effect of centrifugation on antagonism of Smo (Smoothened): disrupted by prior-centrifugation; also recorded: largely or entirely eliminated; radius of colloidal particles by DLS ([6]; DMEM): 180 nm
6 | CN(C(=O)c1ccc(F)cc1C(F)(F)F)C1CCN(c2nnc(-c3ccnn3C)c3ccccc23)CC1 [taladegib] | – | – | – | – | – | – | – | efficacy in the resistant mutants (Smo mutations at D473): unaffected or have minor drop in efficacy
7 | CS(=O)(=O)c1ccc(C(=O)Nc2ccc(Cl)c(-c3ccccn3)c2)c(Cl)c1 [vismodegib, reference compound] | – | – | – | – | – | – | – | IC50 ([1]; read-out: IC50 mGli1 qPCR (range, n)): 0.0018 µM; reduction of binding to Smo by D473H mutation (D473H mutant of Smo): 100 folds; activity on TOPFLASH Wnt-ß-catenin reporter ([4]; 100 nM): lack of inhibition; particle formation by DLS [6]: does not form particles; IC50 [3]: 0.0306 µM

The next lines start with results.

Row | IC50 [1, 7] | outcome of aggregation counter-screens [2] | IC50 (mouse Smoothened) | IC50 ([3]; 24 h) | Inhibition of Gli-Luciferase (yes/no) [3] | Structure (SMILES) | Inhibition - Gli1 qPCR (yes/no) [1] | inhibition at 30 µM [3] | other results
8 | 94.8 µM | well-behaved antagonists | 166 µM | 43 µM | yes | Cc1cccc(C(=O)Nc2cccc(NC(=O)Cc3cccnc3)c2)c1 [Compound 3] | yes | > 50% | Binding (yes/no), BODIPY-cyclopamine displacement (mouse Smoothened): yes
9 | 109 µM | well-behaved antagonists | – | 20.8 µM | yes | CN(C)c1ccc(CNC(=O)Nc2ccc(-n3ccnc3)nc2)cn1 [Compound 6] | yes | > 50% | –
10 | – | – | – | 10.9 µM | – | COc1ccccc1C(=O)Nc1cccc(NC(=O)Cc2cccnc2)c1 [Compound 13b] | – | – | –
11 | – | – | – | 22.4 µM | – | c1ccc(CNc2cc(-c3ccc4c(c3)CNCC4)c3cc[nH]c3n2)nc1 [Compound 19b] | – | – | –
12 | 14 µM | well-behaved antagonists | 15.6 µM | 34.4 µM | yes | COc1cc(-c2cc(NCc3ccccn3)nc3[nH]ccc23)ccc1O [Compound 44] | yes | > 50% | Binding (yes/no), BODIPY-cyclopamine displacement (mouse Smoothened): yes
13 | 11.3 µM | well-behaved antagonists | 58.3 µM | 5.3 µM | yes | NC(=O)c1ccc(-c2cc(NCc3ccccn3)nc3[nH]ccc23)o1 [Compound 244] | yes | > 50% | Binding (yes/no), BODIPY-cyclopamine displacement (mouse Smoothened): yes
